# Laboratory results published in PubChem BioAssay (NCI).
#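 In this assay, cells in 96-well plates receive the compound at five concentrations for 48 hours. Endpoints are linearly interpolated between the surrounding concentrations. GI50: concentration for 50% inhibition of growth. TGI: total growth inhibition.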
# How the values were obtained:
# Assay in all cases: NCI tumour cell line growth inhibition, 48 h
# [1] = system: 786-0 renal
# [2] = system: A498 renal
# [3] = system: A549 NSCLC
# [4] = system: ACHN renal
# [5] = system: BT-549 breast
# [6] = system: CAKI-1 renal
# [7] = system: CCRF-CEM leukemia
# [8] = system: COLO 205 colon
# [9] = system: DU-145 prostate
# [10] = system: EKVX NSCLC
# [11] = system: HCC-2998 colon
# [12] = system: HCT-116 colon
# [13] = system: HCT-15 colon
# [14] = system: HL-60(TB) leukemia
# [15] = system: HOP-62 NSCLC
# [16] = system: HOP-92 NSCLC
# [17] = system: HS 578T breast
# [18] = system: HT29 colon
# [19] = system: IGROV1 ovarian
# [20] = system: K-562 leukemia
# [21] = system: KM12 colon
# [22] = system: LOX IMVI melanoma
# [23] = system: M14 melanoma
# [24] = system: MALME-3M melanoma
# [25] = system: MCF7 breast
# [26] = system: MDA-MB-231 breast
# [27] = system: MDA-MB-435
# [28] = system: MDA-MB-468 breast
# [29] = system: MOLT-4 leukemia
# [30] = system: NCI-H226 lung
# [31] = system: NCI-H23 lung
# [32] = system: NCI-H460 lung
# [33] = system: NCI-H522 lung
# [34] = system: OVCAR-3 ovarian
# [35] = system: OVCAR-4 ovarian
# [36] = system: OVCAR-5 ovarian
# [37] = system: OVCAR-8 ovarian
# [38] = system: PC-3 prostate
# [39] = system: RPMI-8226 leukemia
# [40] = system: RXF 393 renal
# [41] = system: SF-268 CNS
# [42] = system: SF-295 CNS
# [43] = system: SF-539 CNS
# [44] = system: SK-MEL-2 melanoma
# [45] = system: SK-MEL-28 melanoma
# [46] = system: SK-MEL-5 melanoma
# [47] = system: SK-OV-3 ovarian
# [48] = system: SN12C renal
# [49] = system: SNB-19 CNS
# [50] = system: SNB-75 CNS
# [51] = system: SR leukemia
# [52] = system: SW-620 colon
# [53] = system: T-47D breast
# [54] = system: TK-10 renal
# [55] = system: U251 CNS
# [56] = system: UACC-257 melanoma
# [57] = system: UACC-62 melanoma
# [58] = system: UO-31 renal
smiles,measurement,setting,value
COc1ccc2nc(Cl)c(-c3cc(-c4ccccc4)nc(=O)[nH]3)cc2c1,GI50,[1],12.4 µM
same,TGI,[1],40.2 µM
same,GI50,[2],26.1 µM
same,TGI,[2],74.3 µM
same,GI50,[3],20.7 µM
same,TGI,[3],> 100 µM
same,GI50,[4],14.7 µM
same,TGI,[4],32.3 µM
same,GI50,[5],11.9 µM
same,TGI,[5],28.7 µM
same,GI50,[6],12 µM
same,TGI,[6],28.9 µM
same,GI50,[7],2.96 µM
same,TGI,[7],34.3 µM
same,GI50,[8],17 µM
same,TGI,[8],41.5 µM
same,GI50,[9],8.82 µM
same,TGI,[9],29.3 µM
same,GI50,[10],24 µM
same,TGI,[10],> 100 µM
same,GI50,[11],16.5 µM
same,TGI,[11],31.8 µM
same,GI50,[12],6.67 µM
same,TGI,[12],26.2 µM
same,GI50,[13],6.66 µM
same,TGI,[13],33.6 µM
same,GI50,[14],5.32 µM
same,TGI,[14],33 µM
same,GI50,[15],14.8 µM
same,TGI,[15],34.4 µM
same,GI50,[16],6.8 µM
same,TGI,[16],42.5 µM
same,GI50,[17],24.8 µM
same,TGI,[17],> 100 µM
same,GI50,[18],18.3 µM
same,TGI,[18],40.8 µM
same,GI50,[19],17.9 µM
same,TGI,[19],44.1 µM
same,GI50,[20],2.98 µM
same,TGI,[20],59.2 µM
same,GI50,[21],4.25 µM
same,TGI,[21],17.1 µM
same,GI50,[22],3.86 µM
same,TGI,[22],33.5 µM
same,GI50,[23],18.5 µM
same,TGI,[23],46.8 µM
same,GI50,[24],15.9 µM
same,TGI,[24],31.9 µM
same,GI50,[25],4.22 µM
same,TGI,[25],31.6 µM
same,GI50,[26],16.7 µM
same,TGI,[26],43.7 µM
same,GI50,[27],14.8 µM
same,TGI,[27],34.1 µM
same,GI50,[28],11.4 µM
same,TGI,[28],33.8 µM
same,GI50,[29],3.63 µM
same,TGI,[29],54.1 µM
same,GI50,[30],12.7 µM
same,TGI,[30],41.7 µM
same,GI50,[31],12 µM
same,TGI,[31],32.7 µM
same,GI50,[32],5.69 µM
same,TGI,[32],20.6 µM
same,GI50,[33],17 µM
same,TGI,[33],42.4 µM
same,GI50,[34],7.42 µM
same,TGI,[34],23.8 µM
same,GI50,[35],20.4 µM
same,TGI,[35],79.9 µM
same,GI50,[36],18.2 µM
same,TGI,[36],38.1 µM
same,GI50,[37],16.6 µM
same,TGI,[37],88.8 µM
same,GI50,[38],14.2 µM
same,TGI,[38],56 µM
same,GI50,[39],3.08 µM
same,TGI,[39],13.5 µM
same,GI50,[40],13.3 µM
same,TGI,[40],33 µM
same,GI50,[41],14.6 µM
same,TGI,[41],35 µM
same,GI50,[42],21.3 µM
same,TGI,[42],67.2 µM
same,GI50,[43],11.2 µM
same,TGI,[43],23.9 µM
same,GI50,[44],18.5 µM
same,TGI,[44],40.9 µM
same,GI50,[45],15.9 µM
same,TGI,[45],31 µM
same,GI50,[46],16.8 µM
same,TGI,[46],31.5 µM
same,GI50,[47],20.9 µM
same,TGI,[47],51.2 µM
same,GI50,[48],19.4 µM
same,TGI,[48],59 µM
same,GI50,[49],10.7 µM
same,TGI,[49],26 µM
same,GI50,[50],13.1 µM
same,TGI,[50],37.1 µM
same,GI50,[51],1.55 µM
same,TGI,[51],5.47 µM
same,GI50,[52],6.44 µM
same,TGI,[52],35.1 µM
same,GI50,[53],25.8 µM
same,TGI,[53],> 100 µM
same,GI50,[54],29 µM
same,TGI,[54],> 100 µM
same,GI50,[55],4.45 µM
same,TGI,[55],19.9 µM
same,GI50,[56],18.1 µM
same,TGI,[56],37.6 µM
same,GI50,[57],13.8 µM
same,TGI,[57],28.6 µM
same,GI50,[58],10.5 µM
same,TGI,[58],22.4 µM
CCCCCCCNc1nc(C(=O)OCC)ncc1-c1ccc(C(F)(F)F)cc1,GI50,[28],23.4 µM
same,TGI,[28],93.1 µM
CCCc1c(CC)c(=N)c2ccccc2n1C,GI50,[28],3.22 µM
same,TGI,[28],48.7 µM
CC[C@@]1(O)C[C@H](OC2CC(N(C)C)C(OC3CC(O)C(OC4CCC(=O)C(C)O4)C(C)O3)C(C)O2)c2c(cc3c(c2O)C(=O)c2c(O)cccc2C3=O)[C@H]1C(=O)OC (stereo partly specified),GI50,[28],0.017 µM
same,TGI,[28],0.123 µM
COc1ccccc1/C=C/[N+](=O)[O-],GI50,[28],1.65 µM
same,TGI,[28],3.6 µM
CCN(CC)CCNc1ccc([N+](=O)[O-])c2sc3ccccc3c(=O)c12,GI50,[28],1.45 µM
same,TGI,[28],5.07 µM
CN1CCN(c2ccc(NC(=O)c3nc4ccc5[nH]ncc5c4c4c3CCCC4)cc2C(F)(F)F)CC1,GI50,[28],0.859 µM
same,TGI,[28],1.98 µM
C=CCN(/C=C1/C(=O)O[C@H](COC)[C@@]2(C)C1=C(O)C(=O)C1=C2[C@H](OC(C)=O)C[C@]2(C)C(=O)CC[C@@H]12)CC=C,GI50,[28],0.101 µM
same,TGI,[28],0.779 µM
CC(C)CNCC(O)COc1ccc(C(C)(C)c2ccc(OCC(O)CNCC(C)C)cc2)cc1 (stereo unspecified),GI50,[28],2.18 µM
same,TGI,[28],4.91 µM
Cc1cc(/C=C\c2ccc3ccccc3[n+]2C)c(O)c2ncccc12,GI50,[28],0.316 µM
same,TGI,[28],2.23 µM
Cc1c(S(C)(=O)=O)c(-c2cc(F)cc(N3CCN(c4ccc(NS(=O)(=O)c5ccc(N[C@H](CCN6CCC(C(=O)OCCCP(=O)(O)O)CC6)CSc6ccccc6)c(S(=O)(=O)C(F)(F)F)c5)cc4)CC3)c2)c(-c2ccc(Cl)cc2)n1C(C)C,GI50,[28],> 100 µM
same,TGI,[28],> 100 µM
O=C(Nc1ccccc1)Nc1nc2ccc([N+](=O)[O-])cc2s1,GI50,[28],0.755 µM
same,TGI,[28],4.45 µM
COc1ccc(-c2nc3sc(-c4ccc(Cl)cc4)cn3n2)cc1,GI50,[28],2.08 µM
same,TGI,[28],> 50 µM
Cc1ccc(/C(=N\N=C(N)N)c2ccccc2)cc1,GI50,[28],0.426 µM
same,TGI,[28],5.83 µM
CC(=O)N(O)CCCCCNC(=O)CCC(=O)N(O)CCCCCNC(=O)CCC(=O)N(O)CCCCCN(CCCCCCCCCC[P+](c1ccccc1)(c1ccccc1)c1ccccc1)CCCCCCCCCC[P+](c1ccccc1)(c1ccccc1)c1ccccc1,GI50,[28],1.68 µM
same,TGI,[28],5.41 µM
COc1ccc2c(c1)c(CC(=O)[Se]CC#N)c(C)n2C(=O)c1ccc(Cl)cc1,GI50,[28],1.2 µM
same,TGI,[28],3.2 µM
